Experiments:
[1] = AUC (0 to last) in rat at 3 mg/kg, iv; assay type: ADME, organism-based; set-up: time 0 - last, dose 3 mg/kg, route iv; conditions: in vivo
[2] = Plasma clearance in rat at 3 mg/kg, iv; assay type: ADME, organism-based
[3] = MRT in rat at 3 mg/kg, iv; assay type: ADME, organism-based; conditions: in vivo
[4] = Volume of distribution in rat at 3 mg/kg, iv; assay type: ADME, organism-based; conditions: in vivo
[5] = molecular target: T1, Muscarinic acetylcholine receptor M1 (Homo sapiens, UniProt P11229); test: Inhibition of human muscarinic acetylcholine M1 receptor expressed in CHO cells co-expressing Gqi5 preincubated with compound followed by acetylcholine addition at EC80 concentration by calcium mobilization assay; assay type: functional, cell-based
T1 sequence (P11229 whole entry): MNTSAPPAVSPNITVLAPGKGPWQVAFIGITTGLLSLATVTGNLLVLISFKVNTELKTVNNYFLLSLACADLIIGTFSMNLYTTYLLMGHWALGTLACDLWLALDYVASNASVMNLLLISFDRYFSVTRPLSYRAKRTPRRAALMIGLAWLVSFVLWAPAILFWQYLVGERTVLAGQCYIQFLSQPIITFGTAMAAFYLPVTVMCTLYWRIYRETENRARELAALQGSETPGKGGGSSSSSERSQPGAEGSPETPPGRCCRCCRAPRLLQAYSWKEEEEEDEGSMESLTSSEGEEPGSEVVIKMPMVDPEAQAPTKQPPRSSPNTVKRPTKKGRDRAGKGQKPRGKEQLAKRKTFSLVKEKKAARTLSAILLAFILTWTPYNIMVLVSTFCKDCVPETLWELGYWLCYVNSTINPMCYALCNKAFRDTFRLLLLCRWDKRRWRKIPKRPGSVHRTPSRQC

Work on CC(=O)Nc1ccc(-c2ccc(NC[C@@H]3CC34CCN(CC3CCOCC3)CC4)nn2)cc1 yielded an AUC(0-t) [1] of 181 ng·h/mL, a clearance [2] of 257 mL/min/kg and an MRT [3] of 9.33 h. The Vd [4] was 147 L/kg and the IC50 [5] was greater than 10 µM.
